# Test results: patent publication US12162888B2, “Carboxamides as ubiquitin-specific protease inhibitors” (Valo Early Discovery, Inc., priority 2018, dated 2024)
# Biological target: T1, USP28 (His-tagged USP28-FL-mammalian) (Homo sapiens, UniProt Q96RU2)
# T1 construct: Expression of USP28 (1-1077)-TEV-6*His (pTT5 vector) was carried out in Expi293f cells; made in house; host or cells: Expi293F cells (pTT5 vector)
# T1 sequence (Q96RU2 1-1077): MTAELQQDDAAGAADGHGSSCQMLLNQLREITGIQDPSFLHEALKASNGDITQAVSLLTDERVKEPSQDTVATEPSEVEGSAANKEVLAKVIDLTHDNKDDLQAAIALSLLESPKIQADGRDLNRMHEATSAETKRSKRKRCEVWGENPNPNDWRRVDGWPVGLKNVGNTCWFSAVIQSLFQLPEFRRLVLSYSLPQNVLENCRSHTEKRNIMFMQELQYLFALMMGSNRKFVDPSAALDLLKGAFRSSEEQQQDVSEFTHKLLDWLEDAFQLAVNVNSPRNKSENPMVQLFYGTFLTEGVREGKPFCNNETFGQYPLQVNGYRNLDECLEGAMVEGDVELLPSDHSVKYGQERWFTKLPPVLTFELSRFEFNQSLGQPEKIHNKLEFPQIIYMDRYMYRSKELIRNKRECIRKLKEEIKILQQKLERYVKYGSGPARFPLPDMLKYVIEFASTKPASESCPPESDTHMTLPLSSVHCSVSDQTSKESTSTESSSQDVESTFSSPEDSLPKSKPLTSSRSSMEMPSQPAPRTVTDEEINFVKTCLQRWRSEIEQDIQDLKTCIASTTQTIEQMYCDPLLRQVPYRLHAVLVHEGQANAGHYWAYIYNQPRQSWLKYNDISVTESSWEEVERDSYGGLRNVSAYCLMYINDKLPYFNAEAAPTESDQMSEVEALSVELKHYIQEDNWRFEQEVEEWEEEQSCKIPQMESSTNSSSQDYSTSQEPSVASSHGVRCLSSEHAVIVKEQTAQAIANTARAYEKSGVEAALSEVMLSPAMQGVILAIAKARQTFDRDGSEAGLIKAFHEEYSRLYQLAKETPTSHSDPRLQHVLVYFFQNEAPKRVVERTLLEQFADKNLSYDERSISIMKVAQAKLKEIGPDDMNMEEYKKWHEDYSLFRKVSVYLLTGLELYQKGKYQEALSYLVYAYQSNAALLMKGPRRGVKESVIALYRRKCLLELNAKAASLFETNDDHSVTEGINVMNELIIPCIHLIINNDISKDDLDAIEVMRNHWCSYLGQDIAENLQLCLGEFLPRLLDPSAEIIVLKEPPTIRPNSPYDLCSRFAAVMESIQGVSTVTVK
# Experiment: Ubiquitin-Rhodamine 110 Assay for USP28 Activity, Example A-1(a)
# Format: biochemical
# Conditions: Ubiquitin-Rhodamine 110 assay, read-out: USP28 A-1(a) IC50 range
# Method in brief: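 IC50s were fitted with a 4-parameter logistic to percent inhibition relative to no-enzyme and DMSO controls, using Rhodamine 110 fluorescence (485/535 nm) released from 25 nM Ub-Rh110. The enzyme was Expi293F-expressed USP28-FL-His at […], preincubated 30 min with compound (10-point, 25 μM top) in Tris pH 8.0 buffer containing BGG and Triton X-100. Substrate turnover ran 45 min at room temperature and was stopped with 10 mM citric acid.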
row,Compound,IC50 [nM]
1,"Cc1cnc2c(N)c(C(=O)N[C@@H]3CCc4c(ccc(N5CCNCC5)c4F)C3)sc2n1 (single isomer, unassigned) [Example 21-9]",50 to 200
2,"[2H]C1([2H])c2c(F)cc(N3CCNCC3)cc2OC[C@@H]1NC(=O)c1sc2nc(C)ccc2c1N (single isomer, unassigned) [Example 33-1]",1 to 50
3,"Cc1ccc2c(N)c(C(=O)N[C@H]3CCc4cc(N5CCNCC5)ccc4C3)sc2n1 (single isomer, unassigned) [Example 11-21]",200 to 2000
4,"Cc1ccc2c(N)c(C(=O)N[C@@H]3CCc4cc(N5CCNCC5)ccc4C3)sc2n1 (single isomer, unassigned) [Example 11-22]",50 to 200
5,"Cc1cnc2c(N)c(C(=O)N[C@@H]3CCc4c(C#N)c(N5CCNCC5)cc(F)c4C3)sc2n1 (single isomer, unassigned) [Example 14-11]",1 to 50
6,"COC[C@@]1(C)CN(c2ccc3c(n2)CC[C@H](NC(=O)c2sc4nc(C)ccc4c2N)C3)C[C@H]1N [Example 343, 3-amino-N-[(6S)-2-[(3S,4S)-4-amino-3-(methoxymethyl)-3-methylpyrrolidin-1-yl]-5,6,7,8-tetrahydroquinolin-6-yl]-6-methylthieno[2,3-b]pyridine-2-carboxamide]",50 to 200
7,"Cc1cnc2c(N)c(C(=O)N[C@H]3CCc4cc(N5C[C@@H]6C[C@H]5CN6)ccc4C3)sc2n1 (single isomer, unassigned) [Example 11-29]",50 to 200

# Same assay, conditions: biochemical IC50 range, Ubiquitin-Rhodamine 110 assay, read-out: USP28 A-1(a)
row,Compound,IC50 [nM]
1,"Cc1ccc2c(N)c(C(=O)N[C@H]3COc4cc(N5C[C@H](N)[C@]6(CCOC6)C5)ccc4C3)sc2n1 [Example 656, 3-amino-N-[(3R)-7-[(5S,9R)-9-amino-2-oxa-7-azaspiro[4.4]nonan-7-yl]-3,4-dihydro-2H-1-benzopyran-3-yl]-6-methylthieno[2,3-b]pyridine-2-carboxamide]",1 to 50
2,"Cc1ccc2c(N)c(C(=O)N[C@H]3CCc4cc(N5C[C@H](CF)[C@H](N)C5)ccc4C3)sc2n1 [Example 657, 3-amino-N-[(2S)-6-[(3S,4S)-3-amino-4-(fluoromethyl)pyrrolidin-1-yl]-1,2,3,4-tetrahydronaphthalen-2-yl]-6-methylthieno[2,3-b]pyridine-2-carboxamide]",50 to 200
3,"Cc1ccc2c(N)c(C(=O)N[C@H]3CCc4c(F)c(N5CC6CCC(C5)N6)cc(F)c4C3)sc2n1 (single isomer, unassigned) [Example 603]",1 to 50
